This note sets out measurements from article PMC12254266, “Multicolored sequential resonance energy transfer for detection of simultaneous ligand binding at G protein-coupled receptors” (Nature Communications, 2025).

In one data set the target is FFA1-Nluc (Homo sapiens, UniProt O14842). The data set can be described thus: Ca2+ mobilisation antagonism of FFA1 agonists (TUG-905, T360) in Flp-In T-REx 293 cells expressing FFA1-Nluc. The format is cell-based. Also noted: expressed in transfected cells. The protocol:
Nluc-FFA1, FFA1-Nluc or untagged FFA1 Flp-In T-REx 293 cells were plated at 50,000 cells per well in poly-D-lysine coated black clear bottom 96-well plates. Cells were then cultured for 24 h until reaching confluency before culture medium was replaced with medium containing 100 ng/mL of doxycycline to induce receptor expression. Cells were cultured for a further 24 h before the assay. On the day of the assay culture medium was removed and replaced with medium containing 3 μM Fura2-AM Ca^2+ dye. […] Fura2 fluorescent emission at 520 nm following excitation with each of 340 and 380 nm was measured in regular intervals both before and after adding test compounds for a total of 90 s per well. Calcium responses were determined by taking the peak 340/380 ratio after first subtracting the ratios obtained prior to addition of test compound. […]
Ca2+ mobilization responses were measured in
Flp-In T-REx 293 cells expressing FFA1-Nluc. Ca2+ responses to increasing concentrations
pre-treated with 10 μM PPTQ. The mode of antagonism for PPTQ was assessed by
N=3 (A-D, F, H) or N=4 (E, G) independent experiments. S ource data are provided as a […]
Background: Calcium assays in cells follow changes in intracellular calcium, usually with a dye or a luminescent sensor.

The next data set in a line: Aqueous solubility. The format is physicochemical. The following applies: in words, relative to previous analogues.

Structures are written as SMILES. “And” between values parts separate entries of the source, which are not always exact repeats. Equal entries are not always repeated.

Sequence of FFA1-Nluc (O14842 whole entry): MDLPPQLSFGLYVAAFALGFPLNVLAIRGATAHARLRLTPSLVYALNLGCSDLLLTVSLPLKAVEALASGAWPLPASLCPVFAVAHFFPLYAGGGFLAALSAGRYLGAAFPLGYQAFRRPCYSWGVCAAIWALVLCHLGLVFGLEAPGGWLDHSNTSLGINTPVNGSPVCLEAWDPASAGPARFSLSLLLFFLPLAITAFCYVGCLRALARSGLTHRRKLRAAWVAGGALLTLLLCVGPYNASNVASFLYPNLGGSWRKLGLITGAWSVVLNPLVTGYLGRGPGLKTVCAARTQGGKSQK

`COc1ccc(CCCC(C)(C)C)c(N2CCC(COc3cccc(C(CC(=O)O)C4CC4)c3)CC2)c1.O=C(O)C(F)(F)F` (centres unmarked) [T360]: the “Ca2% Response (%)” value at FFA1-Nluc (log[T360] -5, Veh (no antagonist), Sup Figure 6B/6D) was 93.75% and 106.25% and 103.05% and 96.95%; at FFA1-Nluc (log[T360] -5, with 1 μM GW1100), 103.36% and 82.58% and 106.13% and 87.84% and 101.04% and 85.87%; at FFA1-Nluc (log[T360] -6, 10 μΜ (antagonist not given), Sup Figure 6F) it was 76.18% and 67.98% and 49.56% and 55.62% and 87.66% and 92.64%; at FFA1-Nluc (log[T360] -6, Veh (no antagonist), Sup Figure 6B/6D) it was 104.34% and 101.89% and 110.55% and 104.28% and 99.18% and 100.82%; on FFA1-Nluc (log[T360] -6, Veh (no antagonist), Sup Figure 6F), 99.06% and 95.34% and 97.85% and 90.61% and 102.43% and 99.32%; at FFA1-Nluc (log[T360] -6, column head 1.0 μM (antagonist not given), Sup Figure 6F), 76.88% and 59.19% and 87.71% and 76.79% and 92.25% and 102.12%. Further, the “Ca2% Response (%)” value on FFA1-Nluc (log[T360] -6, with 1 μM GW1100) is 91.67% and 83.66% and 88.97% and 81.49% and 113.97% and 109.62%; on FFA1-Nluc (log[T360] -6.5, Veh (no antagonist), Sup Figure 6F), 94.10% and 96.59% and 92.66% and 91.86% and 93.32% and 89.24%; at FFA1-Nluc (log[T360] -6.5, column head 1.0 μM (antagonist not given), Sup Figure 6F), 60.34% and 48.04% and 59.96% and 55.53% and 61.67% and 49.63%; at FFA1-Nluc (log[T360] -7, Veh (no antagonist), Sup Figure 6B/6D) it was 82.83% and 93.76% and 57.76% and 86.64% and 99.93%; at FFA1-Nluc (log[T360] -7, Veh (no antagonist), Sup Figure 6F), 93.07% and 80.87% and 91.43% and 68.96% and 59.63% and 63.91%; on FFA1-Nluc (log[T360] -7, column head 1.0 μM (antagonist not given), Sup Figure 6F), 3.96% and 7.11% and 12.73% and 6.84% and 9.24% and 5.08%. For the same compound, the “Ca2% Response (%)” value on FFA1-Nluc (log[T360] -8, 10 μΜ (antagonist not given), Sup Figure 6F) was 1.71% and -1.05% and -0.90%; on FFA1-Nluc (log[T360] -8, column head 1.0 μM (antagonist not given), Sup Figure 6F), -0.81% and -3.31% and 3.71% and 5.53%; at FFA1-Nluc (log[T360] -9, Veh (no antagonist), Sup Figure 6B/6D), 2.38% and -2.45% and 0.48% and 0.09% and -1.34% and 1.34%; on FFA1-Nluc (log[T360] -11, Veh (no antagonist), Sup Figure 6B/6D), -3.34% and -2.39% and -1.53% and 0.46% and 1.72% and -0.55%.

Take `COc1ccc(C(=O)N(CC(C)(C)CNc2ccc([N+](=O)[O-])c3nonc23)c2cccc(C)n2)c(N2CCC(COc3cccc(C(CC(=O)O)C4CC4)c3)CC2)c1.O=C(O)C(F)(F)F` (centres unmarked) [TUG-2597]: the aqueous solubility entry in the data set “Aqueous solubility” is listed as “improved aqueous solubility”.
